According to US20200262865A1, “COMPOSITIONS AND METHODS FOR TREATING CLOSTRIDIUM ASSOCIATED DISEASES” (REGENTS OF THE UNIVERSITY OF MINNESOTA, priority 2016, published 2020):
Like-named read-outs stand apart in the source and are kept apart here.

Experiments:
[1] = rat, in vivo; cited from earlier work
[2] = test system: highly virulent NAP1 strain of C. difficile; details: cited from earlier work
[3] = test system: Spores from a NAP1 strain of C. difficile; assay: Optical density (OD600) C. difficile spore germination assay; assay type: cell-based, Clostridium difficile; details: BHIS with 2000 μM TCA, OD600 over 20 minutes; for IC100: read-out: concentration giving essentially complete inhibition of spore germination
[4] = test system: NAP1 spores; assay: Phase-contrast (microscope) spore count assay; assay type: cell-based, Clostridium difficile; details: for Percent Spore Germination t20 / Percent Spore Germination Relative to control / Percent Spore Germination t0: 10 μM bile acid analog; for Percent Spore Germination t20 / Percent Spore Germination Relative to control / inhibitor of spore germination (rating in words from Table 1 data): 2000 μM taurocholic acid; for Percent Spore Germination t20 / Percent Spore Germination Relative to control: after 20 minutes; for Percent Spore Germination t0: time zero, before exposure to TCA; for inhibitor of spore germination (rating in words from Table 1 data): 10 μM, 20 minutes
[5] = Clostridioides difficile, 20 min

SMILES | IC100 [3, 5] [µM] | Percent Spore Germination t20 [4] [%] | Percent Spore Germination Relative to control [4] [%] | Percent Spore Germination t0 [4] [%] | inhibitor of spore germination (rating in words from Table 1 data) [4] | further results
CC(CCC(=O)O)C1CCC2C3C(OS(=O)(=O)O)CC4CC(O)CCC4(C)C3CCC12C (stereo not shown) [C7-sulfated UDCA] |  |  |  |  |  | absorption from the colon [1]: poorly absorbed
C[C@H](CCC(=O)Nc1cccc(S(=O)(=O)O)c1)[C@H]1CC[C@H]2[C@@H]3[C@H](O)C[C@@H]4C[C@H](O)CC[C@]4(C)[C@H]3C[C@H](O)[C@]12C [CamSA] |  |  |  |  |  | efficacy at inhibiting germination [2]: very little efficacy
COC(=O)CC[C@@H](C)[C@H]1CC[C@H]2[C@@H]3[C@H](O)C[C@@H]4C[C@H](O)CC[C@]4(C)[C@H]3CC[C@]12C [Comparative Example 1, reference compound] | 500 | 71 ± 1 | 73 ± 1 | 25 ± 6 | weak inhibitors | 
COC(=O)CC[C@@H](C)[C@H]1CC[C@H]2[C@@H]3[C@@H](O)C[C@@H]4C[C@H](O)CC[C@]4(C)[C@H]3CC[C@]12C [Comparative Example 2] | 100 |  |  |  |  | 
CCCCNC(=O)CC[C@@H](C)[C@H]1CC[C@H]2[C@@H]3[C@H](O)C[C@@H]4C[C@H](O)CC[C@]4(C)[C@H]3CC[C@]12C [Comparative Example 3] | 500 |  |  |  |  | 
CCCCNC(=O)CC[C@@H](C)[C@H]1CC[C@H]2[C@@H]3[C@@H](O)C[C@@H]4C[C@H](O)CC[C@]4(C)[C@H]3CC[C@]12C [Comparative Example 4] | 500 |  |  |  |  | 
CO[C@H]1C[C@@H]2C[C@H](O)CC[C@]2(C)[C@H]2CC[C@]3(C)[C@@H]([C@H](C)CCC(=O)O)CC[C@H]3[C@H]12 [Comparative Example 10, reference compound] |  | 71 ± 2 | 75 ± 2 | 25 ± 4 | weak inhibitors | concentration giving partial inhibition of spore germination [3]: 0.5 mM
COC(=O)CC[C@@H](C)[C@H]1CC[C@H]2[C@@H]3[C@@H](OC)C[C@@H]4C[C@H](O)CC[C@]4(C)[C@H]3CC[C@]12C [Comparative Example 11] | 500 |  |  |  |  | 
COC(=O)CC[C@@H](C)[C@H]1CC[C@H]2[C@@H]3[C@H](OC)C[C@@H]4C[C@H](O)CC[C@]4(C)[C@H]3CC[C@]12C [Comparative Example 14] | 500 |  |  |  |  | 
CC(=O)O[C@@H]1CC[C@@]2(C)[C@@H](C1)C[C@@H](OC(C)=O)[C@@H]1[C@@H]2CC[C@]2(C)[C@@H]([C@H](C)CCC(N)=O)CC[C@@H]12 [Comparative Example 20] | 50 |  |  |  |  | 
C[C@H](CCC(=O)N1CCCC1)[C@H]1CC[C@H]2[C@@H]3[C@@H](O)C[C@@H]4C[C@H](O)CC[C@]4(C)[C@H]3CC[C@]12C [Example 1] | 100 |  |  |  |  | 
C[C@H](CCC(=O)N1CCCC1)[C@H]1CC[C@H]2[C@@H]3[C@H](O)C[C@@H]4C[C@H](O)CC[C@]4(C)[C@H]3CC[C@]12C [Example 2] | 100 |  |  |  |  | 
COC(=O)CC[C@@H](C)[C@H]1CC[C@H]2[C@@H]3C[C@H](O)[C@@H]4C[C@H](O)CC[C@]4(C)[C@H]3CC[C@]12C [Example 3] | 500 |  |  |  |  | 
CO[C@@H]1CC[C@@]2(C)[C@@H](C1)C[C@H](OS(=O)(=O)[O-])[C@@H]1[C@@H]2CC[C@]2(C)[C@@H]([C@H](C)CCC(=O)N3CCCC3)CC[C@@H]12.[Na+] [Example 7] |  | 30 ± 6 | 9 ± 5 | 18 ± 2 | potent inhibitors | 
C[C@H](CCC1=NC(C)(C)CO1)[C@H]1CC[C@H]2[C@@H]3[C@@H](O)C[C@@H]4C[C@H](O)CC[C@]4(C)[C@H]3CC[C@]12C [Example 9] | 500 |  |  |  |  | 
C[C@H](CCc1nnn[nH]1)[C@H]1CCC2C3C(CC[C@@]21C)[C@@]1(C)CC[C@@H](O)CC1C[C@@H]3O (stereo partly shown) [Example 12] |  | 29 ± 4 | 19 ± 4 | 17 ± 4 | moderate inhibitors | 
C[C@H](CCc1nnn[n-]1)[C@H]1CC[C@H]2[C@@H]3[C@H](O)C[C@@H]4C[C@H](O)CC[C@]4(C)[C@H]3CC[C@]12C.[Na+] [Example 14] |  | 22 ± 6 | 12 ± 6 | 15 ± 6 | potent inhibitors | IC100 [3]: 10 µM
CO[C@@H]1CC[C@@]2(C)[C@@H](C1)C[C@H](O)[C@@H]1[C@@H]2CC[C@]2(C)[C@@H]([C@H](C)CCc3nnn[n-]3)CC[C@@H]12.[Na+] [Example 15] |  | 31 ± 4 | 26 ± 4 | 16 ± 4 | moderate inhibitors | 
CO[C@@H]1CC[C@@]2(C)[C@@H](C1)C[C@@H](O)[C@@H]1[C@@H]2CC[C@]2(C)[C@@H]([C@H](C)CCc3nnn[n-]3)CC[C@@H]12.[Na+] [Example 16] |  | 21 ± 4 | 8 ± 4 | 16 ± 4 | potent inhibitors | IC100 [3]: 5 µM
CO[C@@H]1CC[C@@]2(C)[C@@H](C1)C[C@H](OS(=O)(=O)[O-])[C@@H]1[C@@H]2CC[C@]2(C)[C@@H]([C@H](C)CCc3nnn[n-]3)CC[C@@H]12.[Na+].[Na+] [Example 17] |  | 44 ± 3 | 42 ± 3 | 21 ± 3 | moderate inhibitors | 
CO[C@@H]1CC[C@@]2(C)[C@@H](C1)C[C@@H](OS(=O)(=O)[O-])[C@@H]1[C@@H]2CC[C@]2(C)[C@@H]([C@H](C)CCc3nnn[n-]3)CC[C@@H]12.[Na+].[Na+] [Example 18] |  | 48 ± 11 | 51 ± 11 | 20 ± 11 | moderate inhibitors | IC100 [3]: 25 µM
CO[C@@H]1CC[C@@]2(C)[C@@H](C1)C[C@@H](O)[C@@H]1[C@@H]2CC[C@]2(C)[C@@H]([C@H](C)CCC(=O)O)CC[C@@H]12 [KLS-1-012B] |  |  |  |  |  | concentration giving partial inhibition of spore germination [3]: 0.1 mM
CO[C@@H]1CC[C@@]2(C)[C@@H](C1)C[C@H](OC)[C@@H]1[C@@H]2CC[C@]2(C)[C@@H]([C@H](C)CCC(=O)O)CC[C@@H]12 [KLS-1-014A] |  |  |  |  |  | concentration giving partial inhibition of spore germination [3]: 1.0 mM
CO[C@@H]1CC[C@@]2(C)[C@@H](C1)C[C@H](O)[C@@H]1[C@@H]2CC[C@]2(C)[C@@H]([C@H](C)CCC(=O)O)CC[C@@H]12 [KLS-1-014B] |  |  |  |  |  | concentration giving partial inhibition of spore germination [3]: 0.50 mM
COC(=O)CC[C@@H](C)[C@H]1CC[C@H]2[C@@H]3[C@H](O)C[C@@H]4C[C@H](OC)CC[C@]4(C)[C@H]3CC[C@]12C [KLS-1-029D] | 500 |  |  |  |  | 
COC(=O)CC[C@@H](C)[C@H]1CC[C@H]2[C@@H]3[C@@H](O)C[C@@H]4C[C@H](OC)CC[C@]4(C)[C@H]3CC[C@]12C [KLS-1-031C] | 500 |  |  |  |  | 
